Results published in PubChem BioAssay (NCI).
“And” between values parts separate entries of the source, which are not always exact repeats. Identical values can stand only once.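 Following 48 hours of exposure in 96-well plates, responses at five concentrations were used to interpolate endpoints linearly. At the GI50, growth is halved. At the TGI there is no net growth.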

What was measured:
Assay in all cases: growth of human tumour cells (NCI), 48 h
[1] = test system: NCI-H460 lung
[2] = test system: T-47D breast
[3] = test system: NCI/ADR-RES ovarian
[4] = test system: MDA-MB-231 breast
[5] = test system: HCC-2998 colon
[6] = test system: HOP-62 NSCLC
[7] = test system: MDA-MB-435
[8] = test system: BT-549 breast
[9] = test system: 786-0 renal
[10] = test system: HS 578T breast

Row | SMILES | GI50 [1] | TGI [1] | GI50 [2] | TGI [2] | GI50 [3] | TGI [3] | GI50 [4] | TGI [4] | GI50 [5] | TGI [5] | GI50 [6] | TGI [6] | GI50 [7] | TGI [7] | GI50 [8] | TGI [8] | GI50 [9] | TGI [9] | GI50 [10] | TGI [10]
1 | CCc1ccc(Oc2c(-c3ccc(OCCc4cccc(C(F)(F)F)c4)cc3O)n[nH]c2C(F)(F)F)cc1 | 1.67 µM | 5.74 µM | 1.43 µM | 4.95 µM | 5.19 µM | 11.9 µM | 4.94 µM | 11.1 µM | 8.54 µM | 16 µM | 5.76 µM | 12 µM | 3.71 µM | 10.3 µM | 6.17 µM | 12.5 µM | 6.38 µM | 12.9 µM | 6.04 µM | 15.4 µM
2 | Cc1c(O)cccc1C(=O)N[C@@H](CSc1ccccc1)[C@H](O)CN1C[C@H]2CCCC[C@H]2C[C@H]1C(=O)NC(C)(C)C | 3.48 µM and 4.79 µM | 13.8 µM and 11.4 µM | 3.79 µM and 6.02 µM | 19.4 µM and > 55.6 µM | 4.87 µM and 6.17 µM | 32.1 µM and 27.1 µM | 3.24 µM and 5.92 µM | 11.5 µM and 13.7 µM | 3.6 µM and 4.97 µM | 10.5 µM and 13.6 µM | 7.26 µM and 5 µM | 21.3 µM and 14.6 µM | 3.46 µM and 4.9 µM | 12.8 µM and 38.4 µM | 4.97 µM and 3.88 µM | 21.1 µM and 17.1 µM | 3.8 µM and 5.87 µM | 16.4 µM and 16 µM | 4.82 µM and 4.87 µM | > 58 µM and 20.3 µM
3 | CC(C)[C@@]12C[C@@H](OC(=O)COC(=O)c3ccccc3)[C@@](C)(O1)[C@@H]1CC[C@@H](C)[C@H]1[C@@H]2OC(=O)/C=C/c1ccccc1 | > 100 µM | > 100 µM | > 34.6 µM | > 100 µM | 0.47 µM | > 100 µM | > 100 µM | > 100 µM | > 100 µM | > 100 µM | > 100 µM | > 100 µM | > 100 µM | > 100 µM | 0.304 µM | > 100 µM | 3.95 µM | > 100 µM | 0.0135 µM | 0.0701 µM
4 | CS(=O)(=O)N1CCC(Nc2ncc(C(=O)c3c(F)cccc3F)c(N)n2)CC1 | 4.25 µM | > 25 µM | 12 µM | > 25 µM | > 25 µM | > 25 µM | 11.9 µM | > 25 µM | 12.9 µM | > 25 µM | 12.6 µM | > 25 µM | 11.1 µM | > 25 µM | > 20.7 µM | > 25 µM | 12.6 µM | > 25 µM | 15.1 µM | > 25 µM
5 | O=C(/C=C(/C=C/c1cccc2[nH]ccc12)OB(F)F)/C=C/c1cccc2[nH]ccc12 | 0.684 µM | 2.91 µM | 0.796 µM | 26.8 µM | 0.399 µM | > 100 µM | 1.55 µM | 5.19 µM | 1.91 µM | 3.63 µM | 2.31 µM | 9.4 µM | 0.475 µM | 2.55 µM | 1.03 µM | 4.09 µM | 0.477 µM | 5.03 µM | 1.5 µM | > 100 µM
6 | COc1ccc(C2=C(c3ccccc3)C(=O)N3CCCC3C2)cc1 (centres undefined) | – | > 62.9 µM | > 52.4 µM | > 100 µM | 8.85 µM | > 100 µM | > 36.1 µM | > 100 µM | 2.27 µM | > 55.5 µM | 39.8 µM | > 100 µM | 5.32 µM | > 100 µM | 32.5 µM | > 100 µM | 1.13 µM | > 100 µM | > 100 µM | > 100 µM
7 | Nc1c(C(=O)Nc2cccc(Cl)c2)sc2nc3c(cc12)C(O)CCC3 (centres undefined) | 0.388 µM | 16.8 µM | 0.463 µM | 53.2 µM | 0.583 µM | > 100 µM | 1.92 µM | 49.1 µM | 2.39 µM | 25.7 µM | 0.569 µM | 23.9 µM | 0.121 µM | 0.408 µM | 3.14 µM | 38.5 µM | 0.66 µM | 20.4 µM | 1.62 µM | > 74 µM
8 | COc1ccc(-c2nc3sccn3c2-c2ccnc(NCCNS(=O)(=O)c3ccc(C(F)(F)F)cc3)n2)cc1 | 2 µM | 11.6 µM | 1.69 µM | > 100 µM | 3.12 µM | > 100 µM | 1.22 µM | 42.5 µM | 4.6 µM | > 100 µM | 13.7 µM | > 100 µM | 1.44 µM | 5.88 µM | 0.707 µM | 5.94 µM | 0.641 µM | 11.3 µM | 2.35 µM | > 100 µM
9 | COc1ccccc1CNCCCN1C(=O)c2ccc3c4c(ccc(c24)C1=O)C(=O)N(CCCNCCCCNCCCN)C3=O | 0.36 µM | 1.5 µM | 0.214 µM | 0.49 µM | 2.02 µM | 7.7 µM | 0.431 µM | 10.5 µM | 0.295 µM | 1.06 µM | 0.658 µM | 2.25 µM | 0.213 µM | 0.494 µM | 1.7 µM | 3.57 µM | 1.03 µM | 3.78 µM | 1.34 µM | 5.49 µM
10 | CC[C@]12C=CCN3CC[C@]4(C(=C(C(=O)OC)C1)Nc1cc5c(cc14)[C@@H]1[C@H](O5)[C@@H](O)[C@@]4(CC)CC(C(=O)OC)=C5Nc6ccccc6[C@@]56CCN1[C@@H]46)[C@@H]32 | 1.05 µM and 1.13 µM | 7.05 µM and 11.9 µM | 0.335 µM | > 100 µM | 0.825 µM and 0.714 µM | 25 µM and > 100 µM | 0.155 µM and 0.395 µM | 10.2 µM and 28.9 µM | 0.0292 µM and 0.0366 µM | 2.63 µM and 1.26 µM | 0.319 µM | > 100 µM | 0.395 µM and 0.309 µM | 25 µM and 10.8 µM | 0.913 µM and 2.49 µM | 25 µM and > 100 µM | 0.252 µM and 0.383 µM | 10 µM and 33.6 µM | 0.344 µM and 0.218 µM | 25 µM and > 100 µM
11 | CC(C)(C)N1CC1CNC(=O)C(=O)NCC1CN1C(C)(C)C (centres undefined) | – | 24.7 µM | – | 98.1 µM | – | > 54 µM | – | > 100 µM | – | 14.8 µM | – | 3.68 µM | – | > 100 µM | – | > 92.6 µM | – | 4.31 µM | – | > 100 µM
12 | Nc1nc(N)c2cc(S(=O)(=O)c3ccc4ccccc4c3)ccc2n1 | – | > 100 µM | – | > 29.6 µM | – | > 100 µM | – | > 31.6 µM | – | > 100 µM | – | 30.3 µM | – | > 100 µM | – | > 100 µM | – | > 100 µM | – | > 73.8 µM
13 | NS(=O)(=O)c1ccc(N=Nc2c(O)[nH]c3ccc(C(=O)NCCCn4ccnc4)cc23)cc1 | > 25 µM | > 25 µM | > 25 µM | > 25 µM | > 25 µM | > 25 µM | > 25 µM | > 25 µM | > 25 µM | > 25 µM | > 25 µM | > 25 µM | > 25 µM | > 25 µM | > 25 µM | > 25 µM | > 25 µM | > 25 µM | > 25 µM | > 25 µM
14 | Cc1cc(O)ccc1C1(c2ccc(O)cc2C)OC(=O)c2ccccc21 | 19.7 µM | 40.4 µM | 20.2 µM | 41.3 µM | 21.1 µM | 49.6 µM | 21.4 µM | 48.9 µM | 18.5 µM | 33.9 µM | 16.7 µM | 32.5 µM | 15.6 µM | 29.7 µM | 17.1 µM | 36.4 µM | 16.8 µM | 34 µM | 18.9 µM | 46.3 µM
15 | Cc1nc2ccc(-n3ncc(C(=O)c4cc5ccccc5[nH]4)c3N)cc2[nH]1 | 2.39 µM | 40.6 µM | 6.74 µM | 45.2 µM | 11.9 µM | 80.2 µM | 10.6 µM | 40.7 µM | 14.4 µM | > 100 µM | 4.9 µM | 51.6 µM | 14.5 µM | > 100 µM | 5.43 µM | 38.6 µM | 9.44 µM | 69.4 µM | 10.5 µM | > 100 µM
16 | Cc1ccc(C2=NN(c3ccc(S(=O)(=O)NC(=O)NCc4ccccc4)cc3)C(c3ccc(N(C)C)cc3)C2)c(C)c1 (centres undefined) | 3.33 µM | 10.4 µM | 6.74 µM | > 100 µM | 3.93 µM | 25.1 µM | 4.16 µM | 22.4 µM | 2.45 µM | 5.65 µM | 5.69 µM | 28 µM | 2.51 µM | 7.08 µM | 3.94 µM | 19.9 µM | 4.37 µM | 36.1 µM | 2.48 µM | 7.02 µM
17 | Cc1[nH]c(C(=O)Nc2cccc(OC3CCNCC3)c2)c(Cl)c1Cl | 1.95 µM | 3.7 µM | 1.96 µM | 4.52 µM | 1.84 µM | 3.47 µM | 1.74 µM | 3.45 µM | 1.76 µM | 3.31 µM | 1.9 µM | 4.53 µM | 1.81 µM | 3.3 µM | 4.65 µM | 18.1 µM | 1.83 µM | 3.44 µM | 2.02 µM | 5.16 µM
18 | CCOC(=O)C1=C(C)NC2SC(=O)/C(=C\c3cccc(Cl)c3)N2C1c1ccccc1 (centres undefined) | > 100 µM | > 100 µM | > 100 µM | > 100 µM | > 100 µM | > 100 µM | > 100 µM | > 100 µM | > 100 µM | > 100 µM | > 100 µM | > 100 µM | > 100 µM | > 100 µM | > 100 µM | > 100 µM | > 100 µM | > 100 µM | 90.4 µM | > 100 µM
19 | COc1cc(/C=C2\CC3C4CCC5=CC(=O)CC[C@]5(C)C4CC[C@]3(C)C2=O)ccc1OCCN1CCCC1 (some centres undefined) | 3.57 µM | > 37.5 µM | 3.29 µM | 9.21 µM | 2.45 µM | 6.51 µM | 2.01 µM | 5.1 µM | 1.85 µM | 3.89 µM | 2.33 µM | 6.11 µM | 2.15 µM | 4.86 µM | 8.44 µM | 23.3 µM | 1.22 µM | 2.91 µM | 3.22 µM | 8.87 µM
20 | COc1cc(/C=C2\CCC/C(=C\c3cc(CN4CCCC4)c(O)c(OC)c3)C2=O)cc(CN2CCCC2)c1O | 2.97 µM | 10.6 µM | 7.97 µM | 22.3 µM | 3.47 µM | > 100 µM | 3.81 µM | 12.8 µM | 2.55 µM | 6.38 µM | 2.93 µM | 9.35 µM | 2.75 µM | 7.46 µM | 4.79 µM | 17.8 µM | 3.15 µM | 14.7 µM | 5.75 µM | 50.9 µM
21 | Cn1cc(-c2csc(-c3ccccc3)n2)c2cccnc21 | 16 µM | 31 µM | 6.04 µM | 28.5 µM | 19.3 µM | 49.6 µM | 13.5 µM | 30.8 µM | 16.7 µM | 31.1 µM | 15.5 µM | 29.5 µM | 11.2 µM | 26.5 µM | 17.1 µM | 45.8 µM | 14.4 µM | 28.2 µM | 11.8 µM | 35.5 µM
